Tests used:
Test in all cases: cell viability (% survival relative to DMSO control); higher = less cytotoxic
Details in all cases: 72 h
[1] = tested on: myeloid leukemia patient primary cells Pat.6
Outline: (§1)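 Thawed mononuclear cells from AML or CML patients were purified on Ficoll and cultured for 72 h in RPMI 1640 with 10% FBS, at 10,000 cells/well, on 384-well plates carrying 70 pre-printed compounds at 1–10,000 nM in five tenfold steps, in duplicate. Viability came from CellTiter-Glo, normalised against DMSO and against 10 μM proteasome inhibitor. Any area under the curve given was derived from log-logistic curve fits in the drc and PharmacoGx R packages, and these fits had four parameters.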

[2] = tested on: myeloid leukemia patient primary cells Pat.14
Outline: as §1

[3] = tested on: myeloid leukemia patient primary cells Pat.9
Outline: as §1

[4] = tested on: myeloid leukemia patient primary cells Pat.12
Outline: as §1

## Sc1ncnc2nc[nH]c12 [6-mercaptopurine]
[1]; 1 nM
  cell viability: 89.3%
[1]; 10 nM
  cell viability: > 100%
[1]; 100 nM
  cell viability: 99.8%
[1]; 1000 nM
  cell viability: 88.3%
[1]; 10000 nM
  cell viability: 97.9%
[2]; 1 nM
  cell viability: 92.6%
[2]; 10 nM
  cell viability: > 100%
[2]; 100 nM
  cell viability: 74.8%
[2]; 1000 nM
  cell viability: 97.9%
[2]; 10000 nM
  cell viability: 88%
[3]; 1 nM
  cell viability: 62.5%
[3]; 10 nM
  cell viability: 68.1%
[3]; 100 nM
  cell viability: 48.8%
[3]; 1000 nM
  cell viability: 79.9%
[3]; 10000 nM
  cell viability: 30.1%
[4]; 1 nM
  cell viability: > 100%
[4]; 10 nM
  cell viability: 95.9%
[4]; 100 nM
  cell viability: 93.6%
[4]; 1000 nM
  cell viability: 97.3%
[4]; 10000 nM
  cell viability: > 100%

## Cc1noc2c1-c1ccccc1C(c1ccc(Cl)cc1)=N[C@H]2CC(N)=O [CPI-0610]
[1]; 1 nM
  cell viability: > 100%
[1]; 10 nM
  cell viability: 87.9%
[1]; 100 nM
  cell viability: > 100%
[1]; 1000 nM
  cell viability: 87.9%
[1]; 10000 nM
  cell viability: 69.7%
[2]; 1 nM
  cell viability: > 100%
[2]; 10 nM
  cell viability: 84.9%
[2]; 100 nM
  cell viability: 86.4%
[2]; 1000 nM
  cell viability: 60.3%
[2]; 10000 nM
  cell viability: 60.7%
[3]; 1 nM
  cell viability: 83%
[3]; 10 nM
  cell viability: 24.2%
[3]; 100 nM
  cell viability: 88.3%
[3]; 1000 nM
  cell viability: 6.03%
[3]; 10000 nM
  cell viability: 11.5%
[4]; 1 nM
  cell viability: 96.7%
[4]; 10 nM
  cell viability: 90.2%
[4]; 100 nM
  cell viability: 98.4%
[4]; 1000 nM
  cell viability: 82.8%
[4]; 10000 nM
  cell viability: 80.9%

## Nc1ccn([C@@H]2O[C@H](CO)[C@@H](O)[C@@H]2O)c(=O)n1 [Cytarabine]
[1]; 1 nM
  cell viability: > 100%
[1]; 10 nM
  cell viability: 78.9%
[1]; 100 nM
  cell viability: 89.5%
[1]; 1000 nM
  cell viability: 86.6%
[1]; 10000 nM
  cell viability: 36.2%
[2]; 1 nM
  cell viability: 85.1%
[2]; 10 nM
  cell viability: 65.1%
[2]; 100 nM
  cell viability: 78.1%
[2]; 1000 nM
  cell viability: 62.9%
[2]; 10000 nM
  cell viability: 15.8%
[3]; 1 nM
  cell viability: 89.7%
[3]; 10 nM
  cell viability: 18.1%
[3]; 100 nM
  cell viability: 51.2%
[3]; 1000 nM
  cell viability: 15.5%
[3]; 10000 nM
  cell viability: 2.09%
[4]; 1 nM
  cell viability: 96.3%
[4]; 10 nM
  cell viability: 94.1%
[4]; 100 nM
  cell viability: > 100%
[4]; 1000 nM
  cell viability: 97.1%
[4]; 10000 nM
  cell viability: 67.7%

## CCN(CC)CCN(Cc1ccc(-c2ccc(C(F)(F)F)cc2)cc1)C(=O)Cn1c(SCc2ccc(F)cc2)nc(=O)c2c1CCC2 [Darapladib]
[1]; 1 nM
  cell viability: 80.4%
[1]; 10 nM
  cell viability: 90%
[1]; 100 nM
  cell viability: 72.6%
[1]; 1000 nM
  cell viability: 79.3%
[1]; 10000 nM
  cell viability: 0.0489%
[2]; 1 nM
  cell viability: 65.7%
[2]; 10 nM
  cell viability: 92.2%
[2]; 100 nM
  cell viability: 52.5%
[2]; 1000 nM
  cell viability: 52.1%
[2]; 10000 nM
  cell viability: 2.36%
[3]; 1 nM
  cell viability: 37.7%
[3]; 10 nM
  cell viability: 60.6%
[3]; 100 nM
  cell viability: 25.1%
[3]; 1000 nM
  cell viability: 2.92%
[3]; 10000 nM
  cell viability: < 0%
[4]; 1 nM
  cell viability: 94.6%
[4]; 10 nM
  cell viability: 97.5%
[4]; 100 nM
  cell viability: 85.3%
[4]; 1000 nM
  cell viability: 92.2%
[4]; 10000 nM
  cell viability: < 0%

## CC12CCC(O)CC1CCC1C2CCC2(C)C(C3=CC(=O)OC3)CCC12O (stereo not given) [Digitoxigenin]
[1]; 1 nM
  cell viability: 99.7%
[1]; 10 nM
  cell viability: 92.2%
[1]; 100 nM
  cell viability: 93.7%
[1]; 1000 nM
  cell viability: 39.5%
[1]; 10000 nM
  cell viability: 11.2%
[2]; 1 nM
  cell viability: 95%
[2]; 10 nM
  cell viability: 66.5%
[2]; 100 nM
  cell viability: 78.4%
[2]; 1000 nM
  cell viability: 22.2%
[2]; 10000 nM
  cell viability: 18.3%
[3]; 1 nM
  cell viability: 79%
[3]; 10 nM
  cell viability: 54.7%
[3]; 100 nM
  cell viability: 13%
[3]; 1000 nM
  cell viability: 5.35%
[3]; 10000 nM
  cell viability: 4.43%
[4]; 1 nM
  cell viability: 97.4%
[4]; 10 nM
  cell viability: 96%
[4]; 100 nM
  cell viability: 94.2%
[4]; 1000 nM
  cell viability: 58.7%
[4]; 10000 nM
  cell viability: 16.8%

## C[C@H]1O[C@@H](O[C@H]2[C@@H](O)C[C@H](O[C@H]3[C@@H](O)C[C@H](O[C@H]4CC[C@@]5(C)[C@H](CC[C@@H]6[C@@H]5C[C@@H](O)[C@]5(C)[C@@H](C7=CC(=O)OC7)CC[C@]65O)C4)O[C@@H]3C)O[C@@H]2C)C[C@H](O)[C@@H]1O [Digoxin]
[1]; 1 nM
  cell viability: 98%
[1]; 10 nM
  cell viability: 96%
[1]; 100 nM
  cell viability: 87%
[1]; 1000 nM
  cell viability: 25.4%
[1]; 10000 nM
  cell viability: 6.2%
[2]; 1 nM
  cell viability: 82.1%
[2]; 10 nM
  cell viability: 90.3%
[2]; 100 nM
  cell viability: 69.7%
[2]; 1000 nM
  cell viability: 18.9%
[2]; 10000 nM
  cell viability: 13.5%
[3]; 1 nM
  cell viability: 76%
[3]; 10 nM
  cell viability: 65.2%
[3]; 100 nM
  cell viability: 17.7%
[3]; 1000 nM
  cell viability: 2.92%
[3]; 10000 nM
  cell viability: 2.42%
[4]; 1 nM
  cell viability: 94.2%
[4]; 10 nM
  cell viability: 95%
[4]; 100 nM
  cell viability: 85.5%
[4]; 1000 nM
  cell viability: 41.7%
[4]; 10000 nM
  cell viability: 12.6%

## Clc1ccc(COC(Cn2ccnc2)c2ccc(Cl)cc2Cl)cc1 (stereo not given) [Econazole]
[1]; 1 nM
  cell viability: 91.4%
[1]; 10 nM
  cell viability: 96%
[1]; 100 nM
  cell viability: 92.2%
[1]; 1000 nM
  cell viability: 84.9%
[1]; 10000 nM
  cell viability: 44.9%
[2]; 1 nM
  cell viability: 64.1%
[2]; 10 nM
  cell viability: 90.1%
[2]; 100 nM
  cell viability: 82.3%
[2]; 1000 nM
  cell viability: 76.3%
[2]; 10000 nM
  cell viability: 0.228%
[3]; 1 nM
  cell viability: 55.9%
[3]; 10 nM
  cell viability: 80.5%
[3]; 100 nM
  cell viability: 43.2%
[3]; 1000 nM
  cell viability: 25.8%
[3]; 10000 nM
  cell viability: 3.7%
[4]; 1 nM
  cell viability: 89.2%
[4]; 10 nM
  cell viability: 94.9%
[4]; 100 nM
  cell viability: 95.7%
[4]; 1000 nM
  cell viability: 96.5%
[4]; 10000 nM
  cell viability: 90.3%

## C[C@]12O[C@H](C[C@]1(O)CO)n1c3ccccc3c3c4c(c5c6ccccc6n2c5c31)CNC4=O [Lestaurtinib]
[1]; 1 nM
  cell viability: 87.2%
[1]; 10 nM
  cell viability: 66.8%
[1]; 100 nM
  cell viability: 73.2%
[1]; 1000 nM
  cell viability: 93.9%
[1]; 10000 nM
  cell viability: 8.53%
[2]; 1 nM
  cell viability: 80.7%
[2]; 10 nM
  cell viability: 43.5%
[2]; 100 nM
  cell viability: 77.9%
[2]; 1000 nM
  cell viability: 40.6%
[2]; 10000 nM
  cell viability: 4.31%
[3]; 1 nM
  cell viability: 56.2%
[3]; 10 nM
  cell viability: 18.6%
[3]; 100 nM
  cell viability: 19.5%
[3]; 1000 nM
  cell viability: 5.6%
[3]; 10000 nM
  cell viability: < 0%
[4]; 1 nM
  cell viability: > 100%
[4]; 10 nM
  cell viability: > 100%
[4]; 100 nM
  cell viability: 87%
[4]; 1000 nM
  cell viability: > 100%
[4]; 10000 nM
  cell viability: 1.77%

## CC(Cc1ccc(O)c(O)c1)C(C)Cc1ccc(O)c(O)c1 (stereo not given) [Masoprocol]
[1]; 1 nM
  cell viability: 97.8%
[1]; 10 nM
  cell viability: 94.2%
[1]; 100 nM
  cell viability: > 100%
[1]; 1000 nM
  cell viability: 72.2%
[1]; 10000 nM
  cell viability: 33.9%
[2]; 1 nM
  cell viability: > 100%
[2]; 10 nM
  cell viability: 85.7%
[2]; 100 nM
  cell viability: 96.7%
[2]; 1000 nM
  cell viability: 55.8%
[2]; 10000 nM
  cell viability: 68.1%
[3]; 1 nM
  cell viability: 75.1%
[3]; 10 nM
  cell viability: 87.1%
[3]; 100 nM
  cell viability: 97.4%
[3]; 1000 nM
  cell viability: 9.61%
[3]; 10000 nM
  cell viability: 83.4%
[4]; 1 nM
  cell viability: 91.2%
[4]; 10 nM
  cell viability: 96.6%
[4]; 100 nM
  cell viability: 98.3%
[4]; 1000 nM
  cell viability: 89%
[4]; 10000 nM
  cell viability: 35.1%

## COc1c(C)c2c(c(O)c1C/C=C(\C)CCC(=O)O)C(=O)OC2 [Mycophenolic acid]
[1]; 1 nM
  cell viability: 83.4%
[1]; 10 nM
  cell viability: 97.6%
[1]; 100 nM
  cell viability: 81.8%
[1]; 1000 nM
  cell viability: 93.2%
[1]; 10000 nM
  cell viability: > 100%
[2]; 1 nM
  cell viability: 75.3%
[2]; 10 nM
  cell viability: 83.7%
[2]; 100 nM
  cell viability: 65.6%
[2]; 1000 nM
  cell viability: 95.5%
[2]; 10000 nM
  cell viability: 93.4%
[3]; 1 nM
  cell viability: 28%
[3]; 10 nM
  cell viability: 63.2%
[3]; 100 nM
  cell viability: 52%
[3]; 1000 nM
  cell viability: 50.4%
[3]; 10000 nM
  cell viability: 75%
[4]; 1 nM
  cell viability: > 100%
[4]; 10 nM
  cell viability: > 100%
[4]; 100 nM
  cell viability: 85.9%
[4]; 1000 nM
  cell viability: > 100%
[4]; 10000 nM
  cell viability: 80.5%

## CCOC(=O)N1c2ccc(C(F)(F)F)cc2[C@@H](N(Cc2cc(C(F)(F)F)cc(C(F)(F)F)c2)C(=O)OC)C[C@H]1CC [Torcetrapib]
[1]; 1 nM
  cell viability: 89.2%
[1]; 10 nM
  cell viability: 80.7%
[1]; 100 nM
  cell viability: > 100%
[1]; 1000 nM
  cell viability: > 100%
[1]; 10000 nM
  cell viability: 50.4%
[2]; 1 nM
  cell viability: 84.7%
[2]; 10 nM
  cell viability: 51%
[2]; 100 nM
  cell viability: > 100%
[2]; 1000 nM
  cell viability: 78.3%
[2]; 10000 nM
  cell viability: 41.7%
[3]; 1 nM
  cell viability: 45.1%
[3]; 10 nM
  cell viability: 28.6%
[3]; 100 nM
  cell viability: 68.9%
[3]; 1000 nM
  cell viability: 48.8%
[3]; 10000 nM
  cell viability: 5.45%
[4]; 1 nM
  cell viability: 93.2%
[4]; 10 nM
  cell viability: 82.7%
[4]; 100 nM
  cell viability: 94.3%
[4]; 1000 nM
  cell viability: 89.7%
[4]; 10000 nM
  cell viability: 79%
